Assay results reported in publication PMC10177510, “A Multicenter, Open-Label, Phase I/II Study of FN-1501 in Patients with Advanced Solid Tumors” (Cancers, 2023).

Experiment: Phase I/II dose escalation: safety and tolerability (DLT, TEAE)
Format: in vivo
Procedure: This Phase 1/2, FIH, open-label, multi-center, single-arm, dose-escalation study was conducted in pts with histologically or cytologically confirmed advanced solid tumors or R/R AML.
In the absence of worrisome toxicity, the remaining pts could be enrolled and dosed in that cohort. Safety evaluations were performed by investigators, the medical monitor, and the Sponsor. A Safety Monitoring Committee determined dose levels to be administered during dose escalation based on data available from the current and previous dose levels.

CN1CCN(Cc2ccc(NC(=O)c3[nH]ncc3Nc3ncnc4[nH]ccc34)cc2)CC1 [FN-1501]
Diarrhea, patients with event (72 mg/day, N = 3): 1 | Dizziness, patients with event (72 mg/day, N = 3): 0 | Dyspnea, patients with event (72 mg/day, N = 3): 0 | Fatigue, patients with event (72 mg/day, N = 3): 0 | Infusion-related reaction, patients with event (72 mg/day, N = 3): 0 | Nausea, patients with event (72 mg/day, N = 3): 1 | Oedema peripheral, patients with event (72 mg/day, N = 3): 1 | Pyrexia, patients with event (72 mg/day, N = 3): 0 | Small intestinal obstruction, Grade ≥ 3 TEAE, n (%) (72 mg/day, N = 3): 1 | Total number of TEAEs (72 mg/day, N = 3): 15 | Total patients with at least 1 TEAE (72 mg/day, N = 3): 2 | Vomiting, patients with event (72 mg/day, N = 3): 0 | Dose-Limiting Toxicity (96 mg/day, 5 patients): 0 | Abdominal pain, patients with event (96 mg/day, N = 5): 0 | Back pain, patients with event (96 mg/day, N = 5): 0 | Constipation, patients with event (96 mg/day, N = 5): 1 | Decreased appetite, patients with event (96 mg/day, N = 5): 0 | Diarrhea, patients with event (96 mg/day, N = 5): 1 | Diarrhoea, Grade ≥ 3 TEAE, n (%) (96 mg/day, N = 5): 1 | Dizziness, patients with event (96 mg/day, N = 5): 1 | Dyspnea, patients with event (96 mg/day, N = 5): 0 | Fatigue, patients with event (96 mg/day, N = 5): 0 | Infusion-related reaction, patients with event (96 mg/day, N = 5): 1 | Lipase increased, Grade ≥ 3 TEAE, n (%) (96 mg/day, N = 5): 1 | Nausea, patients with event (96 mg/day, N = 5): 2 | Oedema peripheral, patients with event (96 mg/day, N = 5): 0 | Pneumonia aspiration, Grade ≥ 3 TEAE, n (%) (96 mg/day, N = 5): 1 | Pneumonia, Grade ≥ 3 TEAE, n (%) (96 mg/day, N = 5): 1 | Pneumothorax, Grade ≥ 3 TEAE, n (%) (96 mg/day, N = 5): 1 | Pyrexia, patients with event (96 mg/day, N = 5): 0 | Total number of TEAEs (96 mg/day, N = 5): 33 | Total patients with at least 1 TEAE (96 mg/day, N = 5): 5 | Vomiting, patients with event (96 mg/day, N = 5): 2 | Dose-Limiting Toxicity (128 mg/day, 3 patients): 0 | Abdominal pain, patients with event (128 mg/day, N = 3): 1 | Acute kidney injury, Grade ≥ 3 TEAE, n (%) (128 mg/day, N = 3): 1 | Aspartate aminotransferase increased, Grade ≥ 3 TEAE, n (%) (128 mg/day, N = 3): 1 | Back pain, patients with event (128 mg/day, N = 3): 1 | Blood creatinine increased, Grade ≥ 3 TEAE, n (%) (128 mg/day, N = 3): 1 | Constipation, patients with event (128 mg/day, N = 3): 0 | Decreased appetite, patients with event (128 mg/day, N = 3): 1 | Diarrhea, patients with event (128 mg/day, N = 3): 0 | Dizziness, patients with event (128 mg/day, N = 3): 1 | Dyspnea, patients with event (128 mg/day, N = 3): 1 | Fatigue, patients with event (128 mg/day, N = 3): 1 | Infusion-related reaction, patients with event (128 mg/day, N = 3): 0 | Nausea, patients with event (128 mg/day, N = 3): 1 | Oedema peripheral, patients with event (128 mg/day, N = 3): 1 | Pyrexia, patients with event (128 mg/day, N = 3): 1 | Total number of TEAEs (128 mg/day, N = 3): 43 | Total patients with at least 1 TEAE (128 mg/day, N = 3): 2 | Vomiting, patients with event (128 mg/day, N = 3): 0 | Dose-Limiting Toxicity (170 mg/day, 4 patients): 0 | Abdominal pain, patients with event (170 mg/day, N = 4): 1 | Back pain, patients with event (170 mg/day, N = 4): 0 | Bacteraemia, Grade ≥ 3 TEAE, n (%) (170 mg/day, N = 4): 1 (25) | Constipation, patients with event (170 mg/day, N = 4): 2 | Decreased appetite, patients with event (170 mg/day, N = 4): 1 | Dehydration, Grade ≥ 3 TEAE, n (%) (170 mg/day, N = 4): 1 (25) | Diarrhea, patients with event (170 mg/day, N = 4): 2 | Dizziness, patients with event (170 mg/day, N = 4): 1 | Dyspnea, patients with event (170 mg/day, N = 4): 2 | Fatigue, patients with event (170 mg/day, N = 4): 4 | Hyponatraemia, Grade ≥ 3 TEAE, n (%) (170 mg/day, N = 4): 1 | Hypoxia, Grade ≥ 3 TEAE, n (%) (170 mg/day, N = 4): 1 (25) | Infusion-related reaction, patients with event (170 mg/day, N = 4): 2 | Lethargy, Grade ≥ 3 TEAE, n (%) (170 mg/day, N = 4): 1 (25) | Nausea, patients with event (170 mg/day, N = 4): 1 | Neutropenia, Grade ≥ 3 TEAE, n (%) (170 mg/day, N = 4): 1 (25) | Oedema peripheral, patients with event (170 mg/day, N = 4): 0 | Pyrexia, patients with event (170 mg/day, N = 4): 0 | Total number of TEAEs (170 mg/day, N = 4): 60 | Total patients with at least 1 TEAE (170 mg/day, N = 4): 4 | Vomiting, patients with event (170 mg/day, N = 4): 1 | DLT of Grade 4 thrombocytopenia, pts (226 mg/d cohort): 1 (25%) | pts with ≥Grade 3 AEs that qualified as DLTs (226 mg/d cohort): 50% | Abdominal pain, patients with event (226 mg/day, N = 4): 0 | Back pain, Grade ≥ 3 TEAE, n (%) (226 mg/day, N = 4): 2 | Back pain, patients with event (226 mg/day, N = 4): 2 | Constipation, patients with event (226 mg/day, N = 4): 0 | Decreased appetite, patients with event (226 mg/day, N = 4): 1 | Diarrhea, patients with event (226 mg/day, N = 4): 3 | Diarrhoea, Grade ≥ 3 TEAE, n (%) (226 mg/day, N = 4): 1 (25) | Dizziness, patients with event (226 mg/day, N = 4): 1 | Dyspnea, patients with event (226 mg/day, N = 4): 0 | Fatigue, patients with event (226 mg/day, N = 4): 0 | Hyponatraemia, Grade ≥ 3 TEAE, n (%) (226 mg/day, N = 4): 1 | Hypophosphataemia, Grade ≥ 3 TEAE, n (%) (226 mg/day, N = 4): 1 (25) | Infusion related reaction, Grade ≥ 3 TEAE, n (%) (226 mg/day, N = 4): 1 (25) | Infusion-related reaction, patients with event (226 mg/day, N = 4): 1 | Iron deficiency anaemia, Grade ≥ 3 TEAE, n (%) (226 mg/day, N = 4): 1 (25) | Nausea, patients with event (226 mg/day, N = 4): 1 | Oedema peripheral, patients with event (226 mg/day, N = 4): 0 | Pneumonia, Grade ≥ 3 TEAE, n (%) (226 mg/day, N = 4): 1 (25) | Pyrexia, patients with event (226 mg/day, N = 4): 0 | Thrombocytopenia, Grade ≥ 3 TEAE, n (%) (226 mg/day, N = 4): 1 (25) | Total number of TEAEs (226 mg/day, N = 4): 46 | Total patients with at least 1 TEAE (226 mg/day, N = 4): 4 | Vomiting, patients with event (226 mg/day, N = 4): 2 | Maximum tolerated dose (MTD) (IV TIW 2 weeks on, 1 week off): 170 mg/day | Maximum tolerated dose (MTD) (IV three times a week for 2 weeks, 21-day cycles): 170 mg | Abdominal distension, Grade ≥ 3 TEAE, n (%) (Total, N = 48): 1 (2) | Abdominal pain, Grade ≥ 3 TEAE, n (%) (Total, N = 48): 1 | Abdominal pain, patients with event (Total, N = 48): 9 | Acute kidney injury, Grade ≥ 3 TEAE, n (%) (Total, N = 48): 1 | Adrenal insufficiency, Grade ≥ 3 TEAE, n (%) (Total, N = 48): 1 (2) | Anaemia, Grade ≥ 3 TEAE, n (%) (Total, N = 48): 1 (2) | Aspartate aminotransferase increased, Grade ≥ 3 TEAE, n (%) (Total, N = 48): 1 | Back pain, patients with event (Total, N = 48): 6 | Bacteraemia, Grade ≥ 3 TEAE, n (%) (Total, N = 48): 1 | Bacterial sepsis, Grade ≥ 3 TEAE, n (%) (Total, N = 48): 1 | Blood alkaline phosphatase increased, Grade ≥ 3 TEAE, n (%) (Total, N = 48): 1 (2) | Blood bilirubin increased, Grade ≥ 3 TEAE, n (%) (Total, N = 48): 1 (2) | Blood creatinine increased, Grade ≥ 3 TEAE, n (%) (Total, N = 48): 1 | Catheter site infection, Grade ≥ 3 TEAE, n (%) (Total, N = 48): 1 | Constipation, patients with event (Total, N = 48): 7 | Decreased appetite, patients with event (Total, N = 48): 6 | Dehydration, Grade ≥ 3 TEAE, n (%) (Total, N = 48): 1 | Delirium, Grade ≥ 3 TEAE, n (%) (Total, N = 48): 1 | Dizziness, patients with event (Total, N = 48): 7 | Dyspnea, patients with event (Total, N = 48): 6 | Fatigue, patients with event (Total, N = 48): 15 | Hypophosphataemia, Grade ≥ 3 TEAE, n (%) (Total, N = 48): 1 | Hypoxia, Grade ≥ 3 TEAE, n (%) (Total, N = 48): 1 | Infusion related reaction, Grade ≥ 3 TEAE, n (%) (Total, N = 48): 1 | Infusion-related reaction, patients with event (Total, N = 48): 7 | Iron deficiency anaemia, Grade ≥ 3 TEAE, n (%) (Total, N = 48): 1 | Lethargy, Grade ≥ 3 TEAE, n (%) (Total, N = 48): 1 | Lipase increased, Grade ≥ 3 TEAE, n (%) (Total, N = 48): 1 (2) | Lung infection, Grade ≥ 3 TEAE, n (%) (Total, N = 48): 1 | Neutropenia, Grade ≥ 3 TEAE, n (%) (Total, N = 48): 1 | Oedema peripheral, patients with event (Total, N = 48): 5 | Peritonitis, Grade ≥ 3 TEAE, n (%) (Total, N = 48): 1 (2) | Pneumonia aspiration, Grade ≥ 3 TEAE, n (%) (Total, N = 48): 1 (2) | Pneumothorax, Grade ≥ 3 TEAE, n (%) (Total, N = 48): 1 (2) | Pyrexia, patients with event (Total, N = 48): 5 | Sepsis, Grade ≥ 3 TEAE, n (%) (Total, N = 48): 1 (2) | Stomatitis, Grade ≥ 3 TEAE, n (%) (Total, N = 48): 1 | Syncope, Grade ≥ 3 TEAE, n (%) (Total, N = 48): 1 (2) | Thrombocytopenia, Grade ≥ 3 TEAE, n (%) (Total, N = 48): 1 | Total number of TEAEs (Total, N = 48): 381 | Total patients with at least 1 TEAE (Total, N = 48): 45 | Vascular access complication, Grade ≥ 3 TEAE, n (%) (Total, N = 48): 1 | Grade 1–2 diarrhea (TEAE), pts (abstract, all doses): 26% | Grade 1–2 fatigue (TEAE), pts (abstract, all doses): 34% | Grade 1–2 nausea (TEAE), pts (abstract, all doses): 32% | Treatment-related adverse events (TRAEs), pts (all doses 2.5 to 226 mg IV): 64% | Abdominal distension, pts (all doses, N = 48): 4 | Gastrointestinal (GI) disorders, pts (all doses, N = 48): 30 (63%) | Grade 1 or 2 fatigue, pts (discussion, all doses): 21% | Grade 1 or 2 nausea, pts (discussion, all doses): 19% | DLTs (doses of 170 mg or lower): No DLTs
